Source: US10934255B2, “Nrf and HIF activators/HDAC inhibitors and therapeutic methods using the same” (THE BOARD OF TRUSTEES OF THE UNIVERSITY OF ILLINOIS, priority 2017, dated 2021)
Where two headings read alike, the source gives them in different places.

Assays:
[1] = test system: panel of 43 cloned human and rodent CNS receptors, channels and transporters; test: PDSP selectivity panel; type: binding; conditions: 43 CNS receptors
Procedure: Compound II-ING-6 also was tested in a panel of 43 cloned human and rodent CNS receptors, channels and transporters using the NIMH sponsored Psychoactive Drug Screening Program (PDSP).

[2] = Blood brain barrier test: tissue concentration after iv injection; type: in vivo, Mouse; conditions: after 20 minutes
Procedure: Tests were conducted to determine the ability of a present compound to cross the blood brain barrier (BBB). In particular, Mouse 1 was injected iv with about 7.5 mg/kg of compound II-ING-6 in DMSO. Mouse 2—about 10 mg/kg. Blood, brain, and liver were collected after 20 minutes (Table 4).

For `O=C(NO)c1ccc(CN2CCc3ccc(Cl)cc32)cc1` [II-ING-6, 4-((6-Chloroindolin-1-yl)methyl)-N-hydroxybenzamide], the “Activity in PDSP panel” value [1] was “No significant activity”, the concentration at 20 min ([2]; brain, Mouse 1, iv 7.5 mg/kg in DMSO, read-out: Concentration, Brain) was 1060 ng/g and the concentration at 20 min ([2]; brain, Mouse 2, iv 10 mg/kg in DMSO, read-out: Concentration, Brain) was 1760 ng/g. For the same compound, the concentration at 20 min ([2]; liver, Mouse 1, iv 7.5 mg/kg in DMSO, read-out: Concentration, Liver) was 501 ng/g, the concentration at 20 min ([2]; liver, Mouse 2, iv 10 mg/kg in DMSO, read-out: Concentration, Liver) was 1030 ng/g and the concentration at 20 min ([2]; plasma, Mouse 1, iv 7.5 mg/kg in DMSO, read-out: Concentration, Plasma) was 256 ng/g. The concentration at 20 min ([2]; plasma, Mouse 2, iv 10 mg/kg in DMSO, read-out: Concentration, Plasma) was 387 ng/g.
